Earlier results as cited in patent US20040192601A1, “Lipid binding molecules and methods of use” (priority 2002, published 2004).

System: PI3K
Conditions: W7 used at 100 μM; stated as a property of the calmodulin inhibitor

Compound: NCCCCCCNS(=O)(=O)c1cccc2c(Cl)cccc12 [W7]
- Inhibition of PI3K activity: does not inhibit PI3K activity
